{"source": "ChEMBL document CHEMBL1201862", "about": "“PubChem BioAssay data set” (2004)", "key": {"[1]": {"target": "Metabotropic glutamate receptor 4 (Rattus norvegicus, UniProt P31423)", "sequence (P31423 whole entry)": "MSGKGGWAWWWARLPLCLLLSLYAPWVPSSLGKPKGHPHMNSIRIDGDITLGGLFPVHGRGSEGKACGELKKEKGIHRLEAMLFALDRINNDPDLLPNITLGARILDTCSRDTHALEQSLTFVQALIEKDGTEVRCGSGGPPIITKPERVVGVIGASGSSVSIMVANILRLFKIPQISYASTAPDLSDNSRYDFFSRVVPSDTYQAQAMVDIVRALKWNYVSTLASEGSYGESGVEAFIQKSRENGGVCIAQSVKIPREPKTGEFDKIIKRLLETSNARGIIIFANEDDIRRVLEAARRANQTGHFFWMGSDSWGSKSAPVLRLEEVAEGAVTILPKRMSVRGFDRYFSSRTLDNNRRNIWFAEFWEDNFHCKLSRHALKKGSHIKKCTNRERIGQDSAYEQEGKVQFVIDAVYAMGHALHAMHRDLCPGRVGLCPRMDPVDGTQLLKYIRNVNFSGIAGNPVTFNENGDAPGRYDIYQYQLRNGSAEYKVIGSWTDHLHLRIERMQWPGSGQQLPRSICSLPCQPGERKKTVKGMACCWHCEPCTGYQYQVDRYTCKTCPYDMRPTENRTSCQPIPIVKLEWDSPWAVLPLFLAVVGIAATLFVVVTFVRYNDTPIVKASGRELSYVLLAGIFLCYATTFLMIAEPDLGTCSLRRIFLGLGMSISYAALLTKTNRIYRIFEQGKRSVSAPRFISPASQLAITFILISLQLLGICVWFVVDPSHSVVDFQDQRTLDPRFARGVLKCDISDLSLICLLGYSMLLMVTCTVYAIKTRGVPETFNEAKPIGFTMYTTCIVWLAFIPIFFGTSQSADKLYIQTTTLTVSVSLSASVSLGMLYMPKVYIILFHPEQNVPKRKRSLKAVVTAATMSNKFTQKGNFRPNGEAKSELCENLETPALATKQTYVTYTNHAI", "assay": "Modulation of the Metabotropic Glutamate Receptor mGluR4: Rat PAM Potency. [Related pubchem assays (depositor defined):AID2437, AID2807]", "type": "functional"}, "[2]": {"target": "Eukaryotic translation initiation factor 4H (Homo sapiens, UniProt Q15056)", "assay": "eIF4H binding inhibition – biochemical, uHTS, fluorescence polarization, translation initiation inhibitor project, primary screen (AID 2012)"}, "[3]": {"target": "Polyadenylate-binding protein 1 (Homo sapiens, UniProt P11940)", "sequence (P11940 whole entry)": "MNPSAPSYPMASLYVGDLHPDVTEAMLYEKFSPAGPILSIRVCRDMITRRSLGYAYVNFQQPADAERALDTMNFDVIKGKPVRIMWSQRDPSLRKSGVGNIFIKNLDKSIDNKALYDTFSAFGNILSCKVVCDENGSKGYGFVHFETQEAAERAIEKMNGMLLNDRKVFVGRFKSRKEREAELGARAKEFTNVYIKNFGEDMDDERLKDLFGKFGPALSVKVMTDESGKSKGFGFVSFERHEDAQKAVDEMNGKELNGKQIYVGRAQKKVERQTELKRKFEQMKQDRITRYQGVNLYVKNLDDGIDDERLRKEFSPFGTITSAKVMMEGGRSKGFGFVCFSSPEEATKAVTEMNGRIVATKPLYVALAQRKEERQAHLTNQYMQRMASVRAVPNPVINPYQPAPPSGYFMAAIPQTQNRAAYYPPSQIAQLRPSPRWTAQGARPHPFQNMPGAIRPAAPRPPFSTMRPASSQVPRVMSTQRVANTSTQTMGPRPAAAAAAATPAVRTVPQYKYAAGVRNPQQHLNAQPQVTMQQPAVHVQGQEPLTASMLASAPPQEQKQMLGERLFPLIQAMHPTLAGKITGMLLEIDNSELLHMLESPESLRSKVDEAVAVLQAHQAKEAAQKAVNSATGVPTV", "assay": "blockers of PABP interaction with poly(A) – biochemical, fluorescence polarization, […] (AID 2014)"}, "[4]": {"assay": "DRD fibroblast viability loss – cell-based, non-viral oncogenic, luminescence, dose response (AID 1934)", "type": "functional", "details": "Homo sapiens"}, "[5]": {"target": "Scavenger receptor class B member 1 (Mus musculus, UniProt Q61009)", "sequence (Q61009 whole entry)": "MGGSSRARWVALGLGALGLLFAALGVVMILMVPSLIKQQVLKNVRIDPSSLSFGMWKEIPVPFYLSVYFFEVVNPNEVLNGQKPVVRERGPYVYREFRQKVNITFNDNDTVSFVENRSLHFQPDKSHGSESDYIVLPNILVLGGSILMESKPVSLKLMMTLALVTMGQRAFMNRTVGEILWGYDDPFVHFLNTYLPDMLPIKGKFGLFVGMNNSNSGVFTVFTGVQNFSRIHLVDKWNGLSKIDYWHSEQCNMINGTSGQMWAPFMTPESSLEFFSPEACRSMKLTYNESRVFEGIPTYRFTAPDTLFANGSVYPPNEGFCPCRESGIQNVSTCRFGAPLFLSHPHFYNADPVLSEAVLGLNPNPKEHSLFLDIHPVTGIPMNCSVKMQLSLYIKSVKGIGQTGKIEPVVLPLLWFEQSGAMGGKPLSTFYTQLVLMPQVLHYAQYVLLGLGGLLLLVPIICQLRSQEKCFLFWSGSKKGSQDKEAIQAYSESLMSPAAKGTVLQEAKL", "assay": "mouse SR-BI DiI-HDL uptake blockers – ldlA[mSR-BI] cells, fluorescence, cherry pick, dose response (AID 493194);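 note: cellular uptake of fluorescent DiI-labeled HDL measured as cell fluorescence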", "type": "functional, cell-based"}, "BJ [6]": {"system": "BJ", "assay": "cells", "type": "functional, cell-based", "details": "Homo sapiens"}, "BJ [7]": {"system": "BJ", "assay": "BJ-TERT fibroblast viability loss – cell-based, RAS-independent, luminescence, dose response (AID 1933)", "type": "functional", "details": "Homo sapiens"}, "BJ [8]": {"system": "BJ", "assay": "BJ-TERT-LT-ST fibroblast viability loss – cell-based, RAS-independent, luminescence, dose response (AID 1935);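 note: BJ fibroblasts immortalized with TERT plus LT and ST oncogenes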", "type": "functional", "details": "Homo sapiens"}, "Coagulation factor XII": {"target": "Coagulation factor XII (Homo sapiens, UniProt P00748)", "sequence (P00748 20-372 limits assumed)": "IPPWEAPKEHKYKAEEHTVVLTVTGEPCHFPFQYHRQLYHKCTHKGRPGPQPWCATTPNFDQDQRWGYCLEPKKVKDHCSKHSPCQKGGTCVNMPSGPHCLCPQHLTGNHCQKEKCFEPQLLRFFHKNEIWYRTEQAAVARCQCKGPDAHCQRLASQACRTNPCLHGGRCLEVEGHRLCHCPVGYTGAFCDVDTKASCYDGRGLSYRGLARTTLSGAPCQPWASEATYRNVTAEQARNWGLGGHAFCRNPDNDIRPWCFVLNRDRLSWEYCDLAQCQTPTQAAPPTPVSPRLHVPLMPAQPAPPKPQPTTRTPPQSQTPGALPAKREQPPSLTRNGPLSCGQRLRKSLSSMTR", "sequence (P00748 373-615 limits assumed)": "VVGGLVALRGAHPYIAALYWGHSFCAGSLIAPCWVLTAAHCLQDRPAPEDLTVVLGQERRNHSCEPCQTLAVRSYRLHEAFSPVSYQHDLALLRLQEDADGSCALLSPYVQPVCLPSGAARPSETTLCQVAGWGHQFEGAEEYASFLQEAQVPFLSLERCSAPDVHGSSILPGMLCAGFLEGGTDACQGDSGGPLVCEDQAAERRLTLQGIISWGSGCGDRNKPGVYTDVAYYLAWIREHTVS", "assay": "activated coagulation factor XII inhibitor potency, concentration-effect curve, cell-free (AID 716)", "type": "functional"}, "[9]": {"target": "Lysosomal acid glucosylceramidase (Homo sapiens, UniProt P04062)", "sequence (P04062 whole entry)": "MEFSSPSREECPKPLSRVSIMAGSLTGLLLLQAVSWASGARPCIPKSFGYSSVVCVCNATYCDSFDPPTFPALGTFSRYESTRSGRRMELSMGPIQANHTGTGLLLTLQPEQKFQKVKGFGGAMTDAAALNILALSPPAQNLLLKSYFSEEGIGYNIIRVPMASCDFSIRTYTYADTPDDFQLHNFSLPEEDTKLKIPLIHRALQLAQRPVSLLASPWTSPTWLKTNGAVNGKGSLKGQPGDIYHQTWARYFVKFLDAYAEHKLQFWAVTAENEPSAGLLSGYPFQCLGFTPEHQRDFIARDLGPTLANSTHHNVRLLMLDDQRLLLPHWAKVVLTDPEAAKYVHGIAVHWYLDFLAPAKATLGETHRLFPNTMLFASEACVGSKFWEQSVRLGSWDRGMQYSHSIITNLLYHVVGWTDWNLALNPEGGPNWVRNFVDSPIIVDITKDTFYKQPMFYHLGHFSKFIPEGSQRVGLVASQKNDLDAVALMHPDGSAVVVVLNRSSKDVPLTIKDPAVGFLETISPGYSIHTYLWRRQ", "assay": "Dose response cell-based high throughput screening assay to identify enhancers of beta-glucosidase activity. [Related pubchem assays: 784 ]", "type": "functional"}, "INS1": {"system": "INS1", "assay": "INS-1E survival protection against cytokine death – cell-based, luminescence, retest, dose response (AID 449756);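 note: cell death triggered by IL-1 beta plus TNF-alpha plus IFN-gamma mixture; protective hits raise ATP signal compared with cytokine alone wells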", "type": "functional", "details": "Rattus norvegicus"}, "[10]": {"assay": "NIH3T3 cell viability loss – ATP luminescence, mouse fibroblasts, counter-screen, dose response (AID 2010);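 note: cells exposed to compound for about 90 hours before reading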", "type": "functional, cell-based"}, "[11]": {"assay": "Trypanosoma cruzi growth suppression in host cells – NIH3T3 host cells, beta-gal luminescence, confirmation (AID 2044);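 note: luminescent beta-galactosidase reporter signal from transgenic T. cruzi replicating inside host cells; inhibitors lower the luminescence signal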", "type": "functional, cell-based"}, "[12]": {"assay": "loss of viability in HepG2 cells – cell-based, CellTiter-Glo, cherry-picked, cytotoxicity control for Shn3 inhibitor project, dose response (AID 624134)", "type": "functional"}, "[13]": {"assay": "non-specific 3'UTR reporter inhibition in Clone20-Shn3RL – cell-based, Renilla luciferase, cherry-picked, counter-screen for Shn3 inhibitor project, dose response (AID 624133)", "type": "functional"}, "[14]": {"target": "T1, Sphingosine 1-phosphate receptor 4 (Homo sapiens, UniProt O95977)", "T1 sequence (O95977 whole entry)": "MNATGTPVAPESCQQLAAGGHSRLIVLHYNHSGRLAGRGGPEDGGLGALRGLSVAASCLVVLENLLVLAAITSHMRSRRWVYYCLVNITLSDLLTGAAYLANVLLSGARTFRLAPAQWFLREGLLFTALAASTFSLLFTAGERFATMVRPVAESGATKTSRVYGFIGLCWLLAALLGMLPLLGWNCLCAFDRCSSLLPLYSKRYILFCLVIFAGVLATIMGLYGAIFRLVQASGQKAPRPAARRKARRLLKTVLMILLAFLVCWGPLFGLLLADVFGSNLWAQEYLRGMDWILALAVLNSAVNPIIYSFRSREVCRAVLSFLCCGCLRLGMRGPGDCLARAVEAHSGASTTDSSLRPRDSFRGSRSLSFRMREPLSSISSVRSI", "assay": "Fluorescence dose response cell-based high throughput screening assay for antagonists of the Sphingosine 1-Phosphate Receptor 4 (S1P4). [Related pubchem assays: 1524 (Confirmation in triplicates.), 1510 (Primary screen.)]", "type": "functional"}, "[15]": {"target": "Sphingosine 1-phosphate receptor 1 (Homo sapiens, UniProt P21453)", "sequence (P21453 whole entry)": "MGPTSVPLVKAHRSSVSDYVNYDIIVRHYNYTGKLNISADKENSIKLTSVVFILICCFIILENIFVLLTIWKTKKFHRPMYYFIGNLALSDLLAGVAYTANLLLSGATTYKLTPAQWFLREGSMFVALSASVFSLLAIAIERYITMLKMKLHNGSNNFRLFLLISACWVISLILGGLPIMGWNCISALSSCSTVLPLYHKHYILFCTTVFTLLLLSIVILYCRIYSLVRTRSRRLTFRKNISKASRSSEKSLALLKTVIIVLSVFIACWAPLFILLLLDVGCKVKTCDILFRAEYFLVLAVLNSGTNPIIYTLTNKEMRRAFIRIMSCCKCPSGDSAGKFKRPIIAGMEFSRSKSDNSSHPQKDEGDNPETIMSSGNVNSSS", "type": "functional"}, "[16]": {"assay": "microbe, parasite or virus in culture", "type": "functional", "details": "Mycobacterium tuberculosis"}, "[17]": {"target": "Neurotensin receptor type 1 (Homo sapiens, UniProt P30989)", "sequence (P30989 whole entry)": "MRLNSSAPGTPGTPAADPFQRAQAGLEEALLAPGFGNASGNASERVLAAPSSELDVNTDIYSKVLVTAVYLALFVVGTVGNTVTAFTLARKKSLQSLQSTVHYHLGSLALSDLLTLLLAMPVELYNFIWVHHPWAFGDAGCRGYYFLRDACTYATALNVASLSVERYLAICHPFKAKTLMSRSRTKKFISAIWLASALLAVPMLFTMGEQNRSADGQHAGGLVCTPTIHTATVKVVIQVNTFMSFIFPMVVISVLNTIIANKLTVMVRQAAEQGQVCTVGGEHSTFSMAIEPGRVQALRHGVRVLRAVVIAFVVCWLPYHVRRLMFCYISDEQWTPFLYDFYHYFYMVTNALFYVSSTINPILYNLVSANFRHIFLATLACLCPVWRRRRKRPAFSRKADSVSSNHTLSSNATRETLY", "type": "functional"}, "[18]": {"assay": "reduction of Shn3 3'UTR-driven luciferase in osteoblasts – cell-based, Clone20 osteoblasts, firefly luciferase, cherry-picked, dose response (AID 624132)", "type": "functional"}, "[19]": {"target": "T1, Sphingosine 1-phosphate receptor 4", "assay": "Late stage fluorescence dose response cell-based screening assay for antagonists of the Sphingosine 1-Phosphate Receptor 4 (S1P4). [Related pubchem assays: 1524 (Confirmation screen (S1P4 antagonists).), 1510 (Primary screen (S1P4 antagonists).), 1853 (Summary AID (S1P4 antagonists).), 1692 (Dose response screen (S1P4 antagonists).)]", "type": "functional"}, "X-box-binding protein 1": {"target": "X-box-binding protein 1 (Homo sapiens, UniProt P17861)", "sequence (P17861 whole entry)": "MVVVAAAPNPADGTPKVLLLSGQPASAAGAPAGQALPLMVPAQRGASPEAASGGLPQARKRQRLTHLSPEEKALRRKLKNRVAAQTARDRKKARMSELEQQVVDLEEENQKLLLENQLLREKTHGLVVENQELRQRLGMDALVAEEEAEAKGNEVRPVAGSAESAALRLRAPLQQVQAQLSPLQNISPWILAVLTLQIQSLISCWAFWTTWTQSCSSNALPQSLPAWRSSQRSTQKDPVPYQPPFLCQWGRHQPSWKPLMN", "type": "functional, Cricetulus griseus"}, "T-cell": {"system": "T-cell", "assay": "loss of vesicle association with mouse CD8+ T cells – mouse 2C CD8+ T cells, flow cytometry, dose response (AID 485284)", "type": "functional"}}, "note": "The source made the active and inactive calls.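 Throughout, for Absolute IC50 (XBP1): confirmatory dose-response counter-screen serving a CHOP assay.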", "data": [{"smiles": "CC1(C)[C@@H]2C(=O)N(c3ccc(NC(=O)c4ccccn4)cc3Cl)C(=O)[C@@H]21", "values": [{"measurement": "EC50", "setting": "[1]", "value": "0.69 µM (active)"}]}, {"smiles": "O=C(COC(=O)CCC(=O)c1ccc(Cl)cc1)NCc1ccco1", "values": [{"measurement": "IC50", "setting": "[2]", "value": "11.1 µM (active)"}, {"measurement": "IC50", "setting": "[3]", "value": "26.7 µM (active)"}]}, {"smiles": "Cc1c(C(=O)OCCOC(C)C)[nH]c2c1C(=O)CC(c1ccco1)C2", "note": "(configuration not stated)", "values": [{"measurement": "EC50", "setting": "[4]", "value": "1.28 µM (inconclusive)"}, {"measurement": "AC50", "setting": "[5]", "value": "34 µM (active)"}, {"measurement": "EC50", "setting": "BJ [6]", "value": "1.71 µM (inconclusive)"}, {"measurement": "EC50", "setting": "BJ [7]", "value": "0.37 µM (active)"}, {"measurement": "EC50", "setting": "BJ [8]", "value": "0.73 µM (inconclusive)"}]}, {"smiles": "CCOC(=O)c1[nH]c2ccc(OC)cc2c1NC(=O)N1CCOCC1", "values": [{"measurement": "IC50", "setting": "Coagulation factor XII", "value": "> 50 µM (inactive)"}]}, {"smiles": "CCOc1ccc(S(=O)(=O)NCC2CCCO2)c2cccnc12", "note": "(configuration not stated)", "values": [{"measurement": "EC50", "setting": "[9]", "value": "> 10 µM (not active)"}]}, {"smiles": "O=C(/C(=C/c1ccc(Cl)cc1)c1nc2ccccc2[nH]1)c1cccs1", "values": [{"measurement": "AC50", "setting": "INS1", "value": "3.71 µM (active)"}, {"measurement": "EC50", "setting": "[10]", "value": "5.47 µM (active)"}, {"measurement": "EC50", "setting": "[4]", "value": "5.28 µM (inconclusive)"}, {"measurement": "EC50", "setting": "[11]", "value": "1.03 µM (active)"}, {"measurement": "AC50", "setting": "[12]", "value": "8.26 µM (active)"}, {"measurement": "EC50", "setting": "BJ [6]", "value": "9.34 µM (active)"}, {"measurement": "AC50", "setting": "[13]", "value": "8.35 µM (active)"}, {"measurement": "IC50", "setting": "[14]", "value": "0.37 µM (active)"}, {"measurement": "IC50", "setting": "[15]", "value": "6.77 µM (active)"}, {"measurement": "EC50", "setting": "BJ [7]", "value": "4.27 µM (inconclusive)"}, {"measurement": "CC50", "setting": "[16]", "value": "2.9 µM (active)"}, {"measurement": "EC50", "setting": "[17]", "value": "12.6 µM (active)"}, {"measurement": "EC50", "setting": "BJ [8]", "value": "3.71 µM (inconclusive)"}, {"measurement": "AC50", "setting": "[18]", "value": "2.66 µM (active)"}, {"measurement": "IC50", "setting": "[19]", "value": "0.737 µM (active)"}]}, {"smiles": "O=C(NCc1ccccc1)c1cc(-c2ccncc2)nc2ccc(S(=O)(=O)N3CCOCC3)cc12", "values": [{"measurement": "Absolute IC50 (XBP1)", "setting": "X-box-binding protein 1", "value": 10, "unit": "µM"}]}, {"smiles": "CCOC(=O)/C=C1\\SCC(=O)N1CC(=O)NC1CCCCC1", "values": [{"measurement": "EC50", "setting": "T-cell", "value": "7.17 µM (active)"}]}]}
